Data taken from patent US12234499B2, “Compositions, methods, systems and/or kits for detecting antimicrobial resistance in bacteria” (priority 2016, dated 2025).

Key:
Experiment in all cases: Growth of enteric bacteria in the presence of TEM (FIG. 1)
Format in all cases: cell-based
[1] = test system: enteric bacteria expressing Class B carbapenemase
Description: (§1) Non-limiting embodiments of detection tests for enteric and non-fermenting bacteria, with various concentration ranges of one or more antibiotics, and various concentration ranges for one or more inhibitors are shown in FIG. 1-FIG. 24 and FIG. 31. These figures illustrate the concentration of the antibiotic being tested (in μg/ml) along the x-axis (not every concentration is tested in every figure), and the amount of growth of bacteria in the sample in the y-axis. The boxes illustrate the median, interquartile range, non-outlier minimum and maximum; with asterisks representing single outliers. Each figure has a panel for Class A, Class B, and Class D producing bacteria, as well as a panel for non-carbapenemase producing bacteria (NEG). In some embodiments, the detection tests described herein are not performed by imaging a change in cell morphology.
(§2) By way of example, FIG. 1 illustrates a test of various enteric bacteria grown in the presence of several concentrations of TEM.
(§3) In some embodiments, the detection tests can comprise a plurality of wells comprising enteric bacteria and TEM over a range of concentrations of about 12 μg/ml to about 512 μg/ml (FIG. 1).

[2] = test system: enteric bacteria expressing Class A carbapenemase; details: Class A enteric bacterial strains
Description: as §1, §2, §3

[3] = test system: non-carbapenemase producing (NEG) enteric bacteria; details: nearly all NEG enteric bacteria
Description: as §1, §2, §3

[4] = test system: enteric bacteria expressing Class D carbapenemase
Description: as §1, §2, §3

SMILES: CO[C@@]1(NC(=O)C(C(=O)O)c2ccsc2)C(=O)N2[C@@H](C(=O)O)C(C)(C)S[C@@H]21 (stereo partly drawn) [TEM, disodium 6beta-(2-carboxy-2-thien-3-ylacetamido)-6alpha-methoxypenicillanate]
- concentration at which bacteria begin to show sensitivity ([1]; Class B enteric bacteria, decrease in the average growth line): 48 µg/mL
- concentration at which growth of most strains is inhibited ([1]; Class B enterics): 384 µg/mL
- concentration at which nearly all strains tested are inhibited [2]: 24 µg/mL
- sensitivity to TEM [3]: sensitive to lowest concentration
- concentration reached before growth is affected ([4]; Class D enteric bacteria unaffected until this concentration): 192 µg/mL
- MIC ([4]; bacteria expressing Class D, read-out: TEM concentration at which bacteria are sensitive (elevated MIC)): ≥ 128 µg/mL
